The source made the active and inactive calls. How the calls were made is not given here.
System: rodent lifetime carcinogenesis bioassay, tumor incidence TD50
Experiment: chronic cancer bioassays in animals – CPDB, compiled studies (AID 1745844)

## CC[C@H]1CN2CCc3cc(OC)c(OC)cc3[C@@H]2C[C@@H]1C[C@H]1NCCc2cc(OC)c(OC)cc21
mouse, strain B6C3F1, females, i.p., site: any site (literature study), lesion: several types, types named in the paper, dosed 40 weeks, study length 78 weeks
  TD50: 1.2 mg/kg/day
mouse, strain B6C3F1, females, i.p., site: lung, lesion: alveolar/bronchiolar adenoma + alveolar/bronchiolar carcinoma, dosed 40 weeks, study length 78 weeks
  TD50: 49.4 mg/kg/day
mouse, strain B6C3F1, males, i.p., site: any site (literature study), lesion: several types, types named in the paper, dosed 44 weeks, study length 78 weeks
  TD50: 0.552 mg/kg/day
mouse, strain B6C3F1, males, i.p., site: liver, lesion: hepatocellular adenoma + hepatocellular carcinoma + neoplastic nodule, dosed 44 weeks, study length 78 weeks
  TD50: 1.3 mg/kg/day
mouse, strain B6C3F1, males, i.p., site: lung, lesion: alveolar/bronchiolar adenoma + alveolar/bronchiolar carcinoma, dosed 44 weeks, study length 78 weeks
  TD50: 1.19 mg/kg/day
rat, strain Sprague-Dawley, females, i.p., site: any site (literature study), lesion: several types, types named in the paper, dosed 52 weeks, study length 83 weeks
  TD50: 0.235 mg/kg/day
rat, strain Sprague-Dawley, males, i.p., site: any site (literature study), lesion: several types, types named in the paper, dosed 52 weeks, study length 83 weeks
  TD50: 0.382 mg/kg/day

## CC(=O)[O-].CC(=O)[O-].CC(=O)[O-].[Cr+3]
mouse, strain Charles River CD1, females, in drinking water, site: any site (literature study), lesion: one or several types, types not named, dosed 145 weeks, study length 145 weeks
  carcinogen call: negative (inactive)
mouse, strain Charles River CD1, females, in drinking water, site: lung, lesion: one or several types, types not named, dosed 145 weeks, study length 145 weeks
  carcinogen call: negative (inactive)
mouse, strain Charles River CD1, males, in drinking water, site: any site (literature study), lesion: one or several types, types not named, dosed 139 weeks, study length 139 weeks
  carcinogen call: negative (inactive)
mouse, strain Charles River CD1, males, in drinking water, site: lung, lesion: one or several types, types not named, dosed 139 weeks, study length 139 weeks
  carcinogen call: negative (inactive)
rat, strain Long-Evans BLU:(LE), both sexes, in drinking water, site: any site (literature study), lesion: malignant tumor, dosed 182 weeks, study length 182 weeks
  TD50: 7.62 mg/kg/day (inactive)
rat, strain Long-Evans BLU:(LE), both sexes, in drinking water, site: any site (literature study), lesion: one or several types, types not named, dosed 182 weeks, study length 182 weeks
  TD50: 1.61 mg/kg/day (inactive)
rat, strain Long-Evans BLU:(LE), both sexes, in drinking water, site: liver, lesion: one or several types, types not named, dosed 182 weeks, study length 182 weeks
  carcinogen call: negative (inactive)

## Oc1ccc(OCc2ccccc2)cc1
mouse, strain B6AKF1, females, oral dosing, site: any site (literature study), lesion: several types, types named in the paper, dosed 76 weeks, study length 76 weeks
  carcinogen call: negative (inactive)
mouse, strain B6AKF1, females, oral dosing, site: liver, lesion: hepatoma, dosed 76 weeks, study length 76 weeks
  carcinogen call: negative (inactive)
mouse, strain B6AKF1, females, oral dosing, site: lung, lesion: adenoma, dosed 76 weeks, study length 76 weeks
  carcinogen call: negative (inactive)
mouse, strain B6AKF1, males, oral dosing, site: any site (literature study), lesion: several types, types named in the paper, dosed 76 weeks, study length 76 weeks
  carcinogen call: negative (inactive)
mouse, strain B6AKF1, males, oral dosing, site: liver, lesion: hepatoma, dosed 76 weeks, study length 76 weeks
  carcinogen call: negative (inactive)
mouse, strain B6AKF1, males, oral dosing, site: lung, lesion: adenoma, dosed 76 weeks, study length 76 weeks
  carcinogen call: negative (inactive)
mouse, strain B6C3F1, females, oral dosing, site: any site (literature study), lesion: several types, types named in the paper, dosed 76 weeks, study length 76 weeks
  TD50: 1230 mg/kg/day (inactive)
mouse, strain B6C3F1, females, oral dosing, site: liver, lesion: hepatoma, dosed 76 weeks, study length 76 weeks
  carcinogen call: negative (inactive)
mouse, strain B6C3F1, females, oral dosing, site: lung, lesion: several types, types named in the paper, dosed 76 weeks, study length 76 weeks
  carcinogen call: negative (inactive)
mouse, strain B6C3F1, males, oral dosing, site: any site (literature study), lesion: several types, types named in the paper, dosed 76 weeks, study length 76 weeks
  TD50: 141 mg/kg/day (inactive)
mouse, strain B6C3F1, males, oral dosing, site: liver, lesion: hepatoma, dosed 76 weeks, study length 76 weeks
  TD50: 382 mg/kg/day (inactive)
mouse, strain B6C3F1, males, oral dosing, site: lung, lesion: adenoma, dosed 76 weeks, study length 76 weeks
  TD50: 382 mg/kg/day (inactive)

## Nc1nnc(-c2ccc([N+](=O)[O-])o2)s1
rat, strain Sprague-Dawley, females, in feed, site: any site (literature study), lesion: several types, types named in the paper, dosed 45 weeks, study length 66 weeks
  TD50: 0.662 mg/kg/day
rat, strain Sprague-Dawley, females, in feed, site: forestomach, lesion: squamous-cell papilloma, dosed 45 weeks, study length 66 weeks
  TD50: 23.7 mg/kg/day
rat, strain Sprague-Dawley, females, in feed, site: kidney/pelvis, lesion: transitional-cell carcinoma, dosed 45 weeks, study length 66 weeks
  TD50: 73.4 mg/kg/day
rat, strain Sprague-Dawley, females, in feed, site: lung, lesion: alveolar-cell carcinoma, dosed 45 weeks, study length 66 weeks
  TD50: 73.4 mg/kg/day
rat, strain Sprague-Dawley, females, in feed, site: mammary gland, lesion: adenocarcinoma, dosed 45 weeks, study length 66 weeks
  TD50: 1.2 mg/kg/day
rat, strain Sprague-Dawley, females, in feed, site: mammary gland, lesion: several types, types named in the paper, dosed 45 weeks, study length 66 weeks
  TD50: 0.662 mg/kg/day

## CCc1nc(N)nc(N)c1-c1ccc(Cl)cc1
mouse, strain B6C3F1, females, in feed, site: any site (literature study), lesion: several types, types named in the paper, dosed 78 weeks, study length 104 weeks
  TD50: 315 mg/kg/day (inactive)
mouse, strain B6C3F1, females, in feed, site: lung, lesion: alveolar/bronchiolar adenoma + alveolar/bronchiolar carcinoma, dosed 78 weeks, study length 104 weeks
  TD50: 405 mg/kg/day
mouse, strain B6C3F1, males, in feed, site: any site (literature study), lesion: several types, types named in the paper, dosed 78 weeks, study length 104 weeks
  TD50: 419 mg/kg/day
rat, strain Fischer 344, females, in feed, site: any site (literature study), lesion: several types, types named in the paper, dosed 78 weeks, study length 104 weeks
  TD50: 27.8 mg/kg/day (inactive)
rat, strain Fischer 344, males, in feed, site: any site (literature study), lesion: several types, types named in the paper, dosed 78 weeks, study length 104 weeks
  carcinogen call: negative (inactive)

## COC(=O)C1=CCCN(N=O)C1
rat, strain Fischer 344, males, in drinking water, site: pancreas, exocrine, lesion: acinar-cell adenoma, dosed 128 weeks, study length 128 weeks
  TD50: 7.95 mg/kg/day

## Cc1ccccc1S(N)(=O)=O
rat, strain Charles River CD (Sprague-Dawley), females, in feed, site: liver, lesion: Kupffer-cell sarcoma, dosed 142 weeks, study length 142 weeks
  TD50: 8520 mg/kg/day
rat, strain Charles River CD (Sprague-Dawley), females, in feed, site: liver, lesion: neoplastic nodule, dosed 142 weeks, study length 142 weeks
  TD50: 21700 mg/kg/day
rat, strain Charles River CD (Sprague-Dawley), females, in feed, site: mammary gland, lesion: adenocarcinoma, dosed 142 weeks, study length 142 weeks
  TD50: 12.2 mg/kg/day
rat, strain Charles River CD (Sprague-Dawley), males, in feed, site: liver, lesion: angiosarcoma, dosed 142 weeks, study length 142 weeks
  TD50: 17200 mg/kg/day
rat, strain Charles River CD (Sprague-Dawley), males, in feed, site: liver, lesion: neoplastic nodule, dosed 142 weeks, study length 142 weeks
  TD50: 35900 mg/kg/day
rat, strain Sprague-Dawley, both sexes, in feed, site: all sites, lesion: leukemia, dosed 133 weeks, study length 142 weeks
  TD50: 375 mg/kg/day
rat, strain Sprague-Dawley, both sexes, in feed, site: any site (literature study), lesion: malignant tumor, dosed 133 weeks, study length 142 weeks
  TD50: 13300 mg/kg/day
rat, strain Sprague-Dawley, both sexes, in feed, site: urinary bladder, lesion: several types, types named in the paper, dosed 133 weeks, study length 142 weeks
  TD50: 3960 mg/kg/day
rat, strain Wistar, females, in drinking water, site: liver, lesion: hepatocellular carcinoma, dosed 102 weeks, study length 102 weeks
  carcinogen call: negative (inactive)

## O=NN1CCNCC1
rat, strain MRC, females, in drinking water, site: any site (literature study), lesion: several types, types named in the paper, dosed 60 weeks, study length 127 weeks
  TD50: 5.51 mg/kg/day
rat, strain MRC, males, in drinking water, site: any site (literature study), lesion: several types, types named in the paper, dosed 60 weeks, study length 127 weeks
  TD50: 21.6 mg/kg/day
rat, strain MRC, males, in drinking water, site: liver, lesion: hepatoma, dosed 60 weeks, study length 127 weeks
  TD50: 6.52 mg/kg/day

## Cc1cc(C)nc(NS(=O)(=O)c2ccc(N)cc2)n1
mouse, strain B6C3F1, females, in feed, site: liver, lesion: hepatocellular adenoma, dosed 78 weeks, study length 78 weeks
  TD50: 2820 mg/kg/day
mouse, strain B6C3F1, females, in feed, site: liver, lesion: hepatocellular adenoma, dosed 104 weeks, study length 104 weeks
  TD50: 12300 mg/kg/day
mouse, strain B6C3F1, females, in feed, site: liver, lesion: hepatocellular carcinoma, dosed 104 weeks, study length 104 weeks
  TD50: 16500 mg/kg/day
mouse, strain B6C3F1, females, in feed, site: liver, lesion: several types, types named in the paper, dosed 104 weeks, study length 104 weeks
  TD50: 8740 mg/kg/day
mouse, strain B6C3F1, females, in feed, site: lung, lesion: alveolar/bronchiolar carcinoma, dosed 52 weeks, study length 52 weeks
  TD50: 3100 mg/kg/day
mouse, strain B6C3F1, females, in feed, site: lung, lesion: alveolar/bronchiolar carcinoma, dosed 104 weeks, study length 104 weeks
  TD50: 12700 mg/kg/day
mouse, strain B6C3F1, females, in feed, site: thyroid gland, lesion: follicular-cell adenoma, dosed 78 weeks, study length 78 weeks
  TD50: 618 mg/kg/day
mouse, strain B6C3F1, females, in feed, site: thyroid gland, lesion: follicular-cell adenoma, dosed 104 weeks, study length 104 weeks
  TD50: 2160 mg/kg/day
mouse, strain B6C3F1, females, in feed, site: thyroid gland, lesion: follicular-cell carcinoma, dosed 104 weeks, study length 104 weeks
  TD50: 54800 mg/kg/day
mouse, strain B6C3F1, females, in feed, site: thyroid gland, lesion: several types, types named in the paper, dosed 104 weeks, study length 104 weeks
  TD50: 2060 mg/kg/day
mouse, strain B6C3F1, males, in feed, site: liver, lesion: hepatocellular adenoma, dosed 104 weeks, study length 104 weeks
  TD50: 14900 mg/kg/day
mouse, strain B6C3F1, males, in feed, site: liver, lesion: several types, types named in the paper, dosed 104 weeks, study length 104 weeks
  TD50: 11700 mg/kg/day
mouse, strain B6C3F1, males, in feed, site: thyroid gland, lesion: follicular-cell adenoma, dosed 78 weeks, study length 78 weeks
  TD50: 3370 mg/kg/day
mouse, strain B6C3F1, males, in feed, site: thyroid gland, lesion: follicular-cell adenoma, dosed 104 weeks, study length 104 weeks
  TD50: 1220 mg/kg/day
mouse, strain B6C3F1, males, in feed, site: thyroid gland, lesion: follicular-cell carcinoma, dosed 104 weeks, study length 104 weeks
  TD50: 72100 mg/kg/day
mouse, strain B6C3F1, males, in feed, site: thyroid gland, lesion: several types, types named in the paper, dosed 104 weeks, study length 104 weeks
  TD50: 1190 mg/kg/day

## OC[C@H]1OC(OC[C@H]2O[C@H](O)[C@H](O)[C@@H](O)[C@@H]2O)[C@H](O)[C@@H](O)[C@@H]1O (stereo partly drawn)
mouse, strain Charles River CD1, females, in feed, site: liver, lesion: one or several types, types not named, dosed 80 weeks, study length 80 weeks
  carcinogen call: negative (inactive)
mouse, strain Charles River CD1, males, in feed, site: liver, lesion: hepatocellular adenoma, dosed 80 weeks, study length 80 weeks
  TD50: 46300 mg/kg/day (inactive)
